According to ChEMBL document CHEMBL1201862, “PubChem BioAssay data set” (2004):
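All cell lines were grown in 96-well plates and treated with compound for 48 hours. GI50 = concentration required for 50% inhibition of growth.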 Activity calls are given as the source filed them. Rule as the data show it: active = GI50 up to about 1.1 µM and inactive = higher.

Assays:
Assay in all cases: inhibition of tumour cell growth, NCI panel, 48 h
IGROV-1 = tested on: IGROV-1
U-251 = tested on: U-251
OVCAR-3 = tested on: OVCAR-3
SW-620 = tested on: SW-620
SNB-75 = tested on: SNB-75
LOX IMVI = tested on: LOX IMVI
Malme-3M = tested on: Malme-3M
786-0 = tested on: 786-0
UO-31 = tested on: UO-31
A549 = tested on: A549
RPMI-8226 = tested on: RPMI-8226
KM12 = tested on: KM12
M14 = tested on: M14
HCT-116 = tested on: HCT-116
UACC-62 = tested on: UACC-62
SR = tested on: SR
HT-29 = tested on: HT-29
OVCAR-4 = tested on: OVCAR-4

Measured: GI50

Brc1ccc(C[N+]23CN4CN(CN(C4)C2)C3)cc1
inactive: IGROV-1 > 100 µM | U-251 69.3 µM | OVCAR-3 73.1 µM | SW-620 22.8 µM | SNB-75 > 100 µM | LOX IMVI 18.8 µM | Malme-3M 26.2 µM | 786-0 30.6 µM | UO-31 50.5 µM | A549 40.4 µM | RPMI-8226 20.4 µM | KM12 > 100 µM | M14 16.9 µM | HCT-116 28.1 µM | UACC-62 14.8 µM | SR > 10 µM

COC(=O)C(Cc1nc2ccc(Cl)cc2nc1O)/C(=N/NC(N)=O)C(=O)Nc1ccc(Cl)cc1 (stereo unspecified)
inactive: IGROV-1 > 100 µM | U-251 > 100 µM | OVCAR-3 > 100 µM | SW-620 > 100 µM | SNB-75 > 100 µM | LOX IMVI > 100 µM | HT-29 > 100 µM | Malme-3M > 100 µM | 786-0 > 100 µM | UO-31 > 100 µM | A549 > 100 µM | RPMI-8226 > 100 µM | KM12 > 100 µM | M14 > 100 µM | HCT-116 > 100 µM | UACC-62 > 100 µM | SR > 100 µM | OVCAR-4 > 100 µM

Cc1cccc(C(C)C)c1N1C(=O)C(=O)C(c2nc3ccccc3o2)C(=O)C1=O
inactive: IGROV-1 > 100 µM | U-251 89.3 µM | OVCAR-3 32.1 µM | SW-620 56.8 µM | SNB-75 26.9 µM | LOX IMVI 41.7 µM | HT-29 56.2 µM | Malme-3M > 100 µM | 786-0 > 100 µM | UO-31 > 100 µM | A549 > 100 µM | KM12 > 100 µM | M14 > 100 µM | HCT-116 53.7 µM | UACC-62 61 µM | SR 70 µM | OVCAR-4 > 100 µM

CN(C)[C@@H]1C(O)=C(C(N)=O)C(=O)[C@@]2(O)C(O)=C3C(=O)c4c(O)cccc4C[C@H]3C[C@@H]12
inactive: IGROV-1 2.1 µM | U-251 2.17 µM | OVCAR-3 1.75 µM | SW-620 3.11 µM | SNB-75 1.61 µM | LOX IMVI 1.91 µM | HT-29 1.87 µM | Malme-3M 1.51 µM | 786-0 2.31 µM | UO-31 1.87 µM | A549 2.32 µM | RPMI-8226 2.17 µM | KM12 2.13 µM | M14 1.99 µM | HCT-116 1.77 µM | UACC-62 1.72 µM | SR 2.56 µM | OVCAR-4 1.68 µM

CCOC(=O)[C@H]1Nc2ccccc2C2c3ccccc3CC21 (stereo partly specified)
inactive: IGROV-1 > 100 µM | U-251 > 100 µM | OVCAR-3 29.6 µM | SW-620 36.8 µM | SNB-75 39.5 µM | LOX IMVI > 100 µM | HT-29 19 µM | Malme-3M > 100 µM | 786-0 > 100 µM | UO-31 68.4 µM | A549 78.3 µM | RPMI-8226 37.9 µM | KM12 71 µM | M14 > 100 µM | HCT-116 41.5 µM | UACC-62 53.3 µM | SR 27.4 µM | OVCAR-4 38.2 µM

O=C(Cc1ccccc1)NN1C(=O)C(Cl)C1c1ccc([N+](=O)[O-])cc1 (stereo unspecified)
inactive: IGROV-1 > 100 µM | U-251 > 100 µM | OVCAR-3 > 100 µM | SW-620 > 100 µM | SNB-75 93.8 µM | LOX IMVI 87.5 µM | HT-29 > 100 µM | Malme-3M > 100 µM | 786-0 > 100 µM | UO-31 > 100 µM | A549 > 100 µM | RPMI-8226 23.5 µM | KM12 > 100 µM | M14 > 100 µM | HCT-116 > 100 µM | UACC-62 > 100 µM | SR 32.7 µM | OVCAR-4 55.6 µM

COc1ccc(C2=NN(c3ccccc3)C[N+](c3ccc(OC)cc3)=N2)cc1
inactive: IGROV-1 21.3 µM | U-251 20.4 µM | OVCAR-3 22 µM | SW-620 24.5 µM | LOX IMVI 17.6 µM | HT-29 57.3 µM | Malme-3M 21.2 µM | 786-0 49.9 µM | UO-31 18.9 µM | A549 48 µM | RPMI-8226 23.2 µM | KM12 21.3 µM | HCT-116 33.7 µM | SR 34 µM | OVCAR-4 18.6 µM

COc1ccccc1/C=C1\C(=O)N(C(=O)Cc2ccccc2)N=C1C
inactive: U-251 > 100 µM | OVCAR-3 > 100 µM | SW-620 > 100 µM | SNB-75 > 100 µM | LOX IMVI > 100 µM | HT-29 > 100 µM | Malme-3M > 100 µM | 786-0 > 100 µM | UO-31 > 100 µM | A549 > 100 µM | RPMI-8226 > 100 µM | KM12 > 100 µM | M14 > 100 µM | HCT-116 > 100 µM | SR > 100 µM | OVCAR-4 > 100 µM
